Measured values as given in patent US7829584B2, “Pyridines and pyridine N-oxides as modulators of thrombin” (Janssen Pharmaceutica NV, priority 2006, dated 2010).

Target: T1, Human α-thrombin (Homo sapiens, UniProt P00734)
T1 construct: Human α-thrombin (Enzyme Research Laboratories HT1002a); purchased Enzyme Research Laboratories (South Bend, Ind.) HT1002a
Assay: In vitro inhibition of purified enzyme, kinetic analysis by chromogenic substrates (Thrombin assay)
Type: biochemical
Conditions: substrate SucAAPR pNA 100 uM, 37° C., pH 7.5, 405 nm, thrombin 1.1 nM
Method: In Vitro Inhibition of Purified Enzyme
Reagents: All buffer salts were obtained from Sigma Chemical Company (St. Louis, Mo.), and were of the highest purity available.
Human α-thrombin, was obtained from Enzyme Research Laboratories (South Bend, Ind.).
Kinetic Analysis by Chromogenic Substrates
Compounds were assessed for their inhibitory activity toward Thrombin by kinetic analysis using para-nitroaniline chromogenic substrates monitored at 405 nm. The assay buffer employed was 50 mM HEPES, pH 7.5, 200 mM NaCl, and fresh 0.05% n-octyl β-d-glucopyranoside. DMSO was present at a final concentration of 4%, derived from the substrate and inhibitory compound stock solutions. […] Reactions were initiated by addition of 10 μL protease, and increase in absorbance due to proteolytic cleavage of substrate was kinetically monitored at 37° C., 405 nm with a Molecular Devices Spectramax 340 plate reader. Initial velocities were determined by analysis of the initial linear portion of the reactions. Plots of vo/vi vs. inhibitor concentration, where vo=velocity without inhibitor, and vi=inhibited velocity, were fit to a linear regression line, and IC50 was determined from the reciprocal of the slope. Ki was calculated from IC50 using the Ki factor specific for the assay as: Ki=IC50×Ki factor, or Ki=IC50×(1/(1+[S]/Km)), where S is the substrate concentration in the assay, and Km is the Michaelis constant for the substrate (Cheng Y and Prusoff W H (1973) Biochem Pharmacol 22: 3099-3108).
The Thrombin assay incorporated substrate SucAAPR pNA (Bachem L-1720, [S]=100 uM final, Km=320 μM, Ki factor=0.76). Substrate in DMSO (10.7 mM) was diluted in assay buffer 100-fold for 100 μM final. Human α-thrombin (Enzyme Research Laboratories HT1002a) was diluted 1500-fold in assay buffer for a final assay concentration of 1.1 nM.

IC50 [nM] | Structure (SMILES)
~42 | N#Cc1ccc(NCC(F)(F)c2ccccn2)[n+]([O-])c1CC(=O)NCc1ccc2ccnc(N)c2c1 [Cpd 5, 3-cyano-6-(2,2-difluoro-2-pyridin-2-yl-ethylamino)-2-(1-Amino-isoquinolin-7-ylmethyl)aminocarbonylmethyl-pyridine 1-oxide]
~0.13 | N#Cc1ccc(NCC(F)(F)c2ccccc2)[n+]([O-])c1CC(=O)NCCONC(=N)N [Cpd 1, 3-cyano-6-(2,2-difluoro-2-phenyl-ethylamino)-2-{2-[(aminoiminomethyl)aminooxy]ethyl}aminocarbonylmethyl-pyridine 1-oxide]
~200 | N#Cc1ccc(NCC(F)(F)c2ncccn2)[n+]([O-])c1CC(=O)NCc1cnccc1-n1cncn1 [Cpd 9, 3-cyano-6-(2,2-difluoro-2-pyrimidin-2-yl-ethylamino)-2-(4-[1,2,4]triazol-1-yl-pyridin-3-ylmethyl)aminocarbonylmethyl-pyridine 1-oxide]
~3.4 | N#Cc1ccc(NCC(F)(F)c2ccc(F)cc2)[n+]([O-])c1CC(=O)NCc1cnccc1-n1cncn1 [Cpd 8, 3-cyano-6-(2,2-difluoro-2-(4-fluoro-phenyl)-ethylamino)-2-(4-[1,2,4]triazol-1-yl-pyridin-3-ylmethyl)aminocarbonylmethyl-pyridine 1-oxide]
~170 | N#Cc1ccc(NCC(F)(F)c2ccccn2)[n+]([O-])c1CC(=O)NCc1cccnc1-n1cncn1 [Cpd 10, 3-cyano-6-(2,2-difluoro-2-pyridin-2-yl-ethylamino)-2-(2-[1,2,4]triazol-1-yl-pyridin-3-ylmethyl)aminocarbonylmethyl-pyridine 1-oxide]
~66 | N#Cc1ccc(NCC(F)(F)c2ccccn2)[n+]([O-])c1CC(=O)NCc1cncc(Cl)c1 [Cpd 12, 3-cyano-6-(2,2-difluoro-2-pyridin-2-yl-ethylamino)-2-(5-chloro-pyridin-3-ylmethyl)aminocarbonylmethyl-pyridine 1-oxide]
~370 | N=C(N)NOCCNC(=O)Cc1nc(NCC(F)(F)c2ccccc2)ccc1Cl [Cpd 11, N-{2-[(aminoiminomethyl)aminooxy]ethyl}-2-[3-chloro-6-(2,2-difluoro-2-phenyl-ethylamino)-pyridin-2-yl]-acetamide]
~0.44 | N#Cc1ccc(NCC(F)(F)c2ccccn2)[n+]([O-])c1CC(=O)NCc1c(F)cccc1-n1cncn1 [Cpd 7, 3-cyano-6-(2,2-difluoro-2-pyridin-2-yl-ethylamino)-2-(2-[1,2,4]triazol-1-yl-6-fluoro-phenylmethyl)aminocarbonylmethyl-pyridine 1-oxide]
~6.1 | N#Cc1ccc(NCC(F)(F)c2ccccn2)[n+]([O-])c1CC(=O)NCc1ccc2c(N)noc2c1 [Cpd 4, 3-cyano-6-(2,2-difluoro-2-pyridin-2-yl-ethylamino)-2-(3-amino-benzo[d]isoxazol-6-ylmethyl)aminocarbonylmethyl-pyridine 1-oxide]
~280 | N#Cc1ccc(NCC(F)(F)c2ccccn2)[n+]([O-])c1CC(=O)NCc1ccc2onc(N)c2c1 [Cpd 3, 3-cyano-6-(2,2-difluoro-2-pyridin-2-yl-ethylamino)-2-(3-Amino-benzo[d]isoxazol-5-ylmethyl)aminocarbonylmethyl-pyridine 1-oxide]
~3.3 | N#Cc1ccc(NCC(F)(F)c2ccccn2)[n+]([O-])c1CC(=O)NCc1cnccc1-n1cncn1 [Cpd 6, 3-cyano-6-(2,2-difluoro-2-pyridin-2-yl-ethylamino)-2-(4-[1,2,4]triazol-1-yl-pyridin-3-ylmethyl)aminocarbonylmethyl-pyridine 1-oxide]
~0.54 | N=C(N)NOCCNC(=O)Cc1c(Cl)ccc(NCC(F)(F)c2ccccc2)[n+]1[O-] [Cpd 2, 3-chloro-6-(2,2-difluoro-2-phenyl-ethylamino)-2-{2-[(aminoiminomethyl)aminooxy]ethyl}aminocarbonylmethyl-pyridine 1-oxide]
